Source: ChEMBL document CHEMBL5154655, “Identification of indole-based activators of insulin degrading enzyme” (Eur J Med Chem, 2022)
≈ marks a conversion by molar mass, not a printed value.

Key:
[1] = biological target: T1, Insulin-degrading enzyme (Homo sapiens, UniProt P14735); assay: Activation of human recombinant IDE using ATTO 655-Cys-Lys-Leu-Val-Phe-Phe-Ala-Glu-Asp-trp as substrate incubated for 10 mins followed by substrate addition and measured after 20 mins by fluorescence spectrophotometer analysis
T1 sequence (P14735 whole entry): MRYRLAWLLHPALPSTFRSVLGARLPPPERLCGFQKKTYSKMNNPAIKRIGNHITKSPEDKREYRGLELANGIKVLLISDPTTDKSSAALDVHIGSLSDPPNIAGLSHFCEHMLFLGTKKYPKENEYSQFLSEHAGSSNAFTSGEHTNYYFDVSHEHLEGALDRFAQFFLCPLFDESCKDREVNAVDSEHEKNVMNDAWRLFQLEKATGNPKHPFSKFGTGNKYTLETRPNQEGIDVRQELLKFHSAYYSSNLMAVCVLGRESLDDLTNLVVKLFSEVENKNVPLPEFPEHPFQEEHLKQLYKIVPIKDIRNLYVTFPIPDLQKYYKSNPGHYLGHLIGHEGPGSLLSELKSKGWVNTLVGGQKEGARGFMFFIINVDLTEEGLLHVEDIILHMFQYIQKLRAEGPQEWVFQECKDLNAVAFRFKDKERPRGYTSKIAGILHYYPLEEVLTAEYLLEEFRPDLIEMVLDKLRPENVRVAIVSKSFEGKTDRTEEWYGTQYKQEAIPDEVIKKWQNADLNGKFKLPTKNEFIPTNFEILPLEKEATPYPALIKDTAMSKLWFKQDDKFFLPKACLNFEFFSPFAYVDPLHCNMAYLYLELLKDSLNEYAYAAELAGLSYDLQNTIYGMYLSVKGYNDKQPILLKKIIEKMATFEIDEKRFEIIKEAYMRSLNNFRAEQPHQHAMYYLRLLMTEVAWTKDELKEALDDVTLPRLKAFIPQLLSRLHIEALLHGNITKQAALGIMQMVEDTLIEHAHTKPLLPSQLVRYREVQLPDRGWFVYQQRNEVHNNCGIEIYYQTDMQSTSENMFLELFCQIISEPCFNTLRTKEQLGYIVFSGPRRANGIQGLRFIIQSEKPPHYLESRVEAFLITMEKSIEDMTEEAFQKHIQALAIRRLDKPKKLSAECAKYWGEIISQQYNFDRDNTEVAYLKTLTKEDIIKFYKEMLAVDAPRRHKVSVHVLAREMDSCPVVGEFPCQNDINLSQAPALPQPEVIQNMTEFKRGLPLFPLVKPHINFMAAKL

[2] = Solubility of the compound at 100 uM; type: physicochemical
[3] = Lipophilicity, logD of the compound in 1-octanol and phosphate buffer at pH 7.4 incubated for 2 hrs under shaking condition by LC-MS/MS analysis; type: physicochemical; conditions: 1-octanol/phosphate buffer
[4] = Dissociation constant, pKa of the compound; type: physicochemical
[5] = Solubility of the compound at 15 uM; type: physicochemical
[6] = Aqueous thermodynamic solubility of the compound in phosphate buffer/MeOH at pH 7.4 measured after 24 hrs by LC-MS/MS analysis; type: physicochemical; conditions: read-out: Therm_solubility
[7] = Stability in rat plasma assessed as half life at 10 uM; type: ADME, cell-free

Compound	EC50 [1] [µM]	solubility [2]	also measured
O=C(NCCCn1ccnc1)NCCc1cn(S(=O)(=O)c2ccccc2)c2ccccc12	10.2	–	–
O=C(CCCc1cn(S(=O)(=O)c2ccsc2)c2ccccc12)NCCCn1ccnc1	13.8	–	–
O=C(CCCc1cn(C(=O)c2ccc(Cl)cc2)c2ccccc12)NCCCn1ccnc1	–	Insoluble	–
O=C(CCCc1cn(S(=O)(=O)c2ccccc2)c2ccccc12)NCCCn1ccnc1	13.2	–	logD at 2 h [3]: 2.7; pKa [4]: 6.9; solubility [5]: Soluble
O=C(CCCc1cn(-c2ccccc2)c2ccccc12)NCCCn1ccnc1	–	Insoluble	–
O=C(CCCC1C(=O)Nc2ccccc21)NCCCn1ccnc1 (stereo unspecified)	38.9	–	–
O=C(CCCc1cn(C(=O)c2ccc(F)cc2)c2ccccc12)NCCCn1ccnc1	–	Insoluble	–
O=C(CCCCc1cn(S(=O)(=O)c2ccccc2)c2ccccc12)NCCCn1ccnc1	–	Insoluble	–
O=C(CCCc1cn(S(=O)(=O)c2cccnc2)c2ccccc12)NCCCn1ccnc1	26.9	–	–
O=C(CCCc1cn(S(=O)(=O)c2ccccc2)c2ccccc12)NCCCN1CCCC1	–	–	pKa [4]: 8.8
O=C(CCCc1cn(S(=O)(=O)c2cccc(F)c2)c2ccccc12)NCCCn1ccnc1	10.2	Insoluble	–
O=C(CCCc1cn(S(=O)(=O)c2ccc(F)cc2)c2ccccc12)NCCCn1ccnc1	–	Insoluble	–
O=C(NCCCn1ccnc1)c1cn(S(=O)(=O)c2ccccc2)c2ccccc12	–	Insoluble	–
CS(=O)(=O)n1cc(CCCC(=O)NCCCn2ccnc2)c2ccccc21	26.9	–	–
CN(CCCn1ccnc1)C(=O)CCCc1cn(S(=O)(=O)c2ccccc2)c2ccccc12	14.1	–	–
O=C(CCCc1nn(S(=O)(=O)c2ccccc2)c2ccccc12)NCCCn1ccnc1	12.3	–	–
O=C(CCCc1cn(S(=O)(=O)c2cccs2)c2ccccc12)NCCCn1ccnc1	–	–	logD at 2 h [3]: 2.7; solubility thermodynamic at 24 h [6]: 8.9 µM (≈ 4.06 µg/mL); half-life at 10 µM [7]: > 24 h
O=C(CCCc1cn(S(=O)(=O)c2ccccc2F)c2ccccc12)NCCCn1ccnc1	–	Insoluble	–
O=C(CCc1cn(S(=O)(=O)c2ccccc2)c2ccccc12)NCCCn1ccnc1	15.5	–	–
O=C(CCCc1cn(S(=O)(=O)c2cccc3nsnc23)c2ccccc12)NCCCn1ccnc1	–	Insoluble	–
Cn1cnc(S(=O)(=O)n2cc(CCCC(=O)NCCCn3ccnc3)c3ccccc32)c1	28.8	–	–
N[C@@H](Cc1cn(S(=O)(=O)c2ccccc2)c2ccccc12)C(=O)NCCCn1ccnc1	14.5	–	–
O=C(CCCc1cn(S(=O)(=O)c2ccc(-c3ccccc3)cc2)c2ccccc12)NCCCn1ccnc1	–	Insoluble	–
O=C(CCCc1cn(S(=O)(=O)c2ccccc2)c2ccccc12)NCCCc1c[nH]cn1	–	–	pKa [4]: 7
O=C(CCCc1cn(C(=O)c2cccs2)c2ccccc12)NCCCn1ccnc1	21.4	–	–
